Patent publication US12435044B2, “Pyridazinone herbicides and pyridazinone intermediates used to prepare a herbicide” (FMC Corporation, priority 2018, dated 2025)

How the values were obtained:
Assay type in all cases: in vivo
[1] = tested on: chamomile (scentless chamomile, Matricaria inodora); assay: Test D postemergence controlled growth environment test
Source text: Seeds of plant species selected from blackgrass (Alopecurus myosuroides), galium (catchweed bedstraw, Galium aparine), kochia (Kochia scoparia), oilseed rape (Brassica napus), barley, spring (Hordeum vulgare), wheat, spring (Triticum aestivum), oat, wild (Avena fatua), barley, winter (Hordeum vulgare) and wheat, winter (Triticum aestivum) were planted into a silt loam soil and treated preemergence with test chemicals formulated in a non-phytotoxic solvent mixture which included a surfactant.
At the same time, plants selected from these crop and weed species and also bluegrass (annual bluegrass, Poa annua), canarygrass (littleseed canarygrass, Phalaris minor), chickweed (common chickweed, Stellaria media), bromegrass, downy (downy bromegrass, Bromus tectorum), field poppy (Papaver rhoeas), field violet (Viola arvensis), foxtail, green (Setaria viridis), deadnettle (henbit deadnettle, Lamium amplexicaule), ryegrass, Italian (Lolium multiflorum), lambsquarters (Chenopodium album), pigweed (Amaranthus retroflexus), chamomile (scentless chamomile, Matricaria inodora), Russian thistle (Salsola kali), speedwell (bird's-eye speedwell, Veronica persica), buckwheat, wild (Polygonum convolvulus), mustard, wild (Sinapis arvensis), radish, wild (Raphanus raphanistrum), windgrass (Apera spica-venti), geranium, cutleaf (Geranium dissectum) and Canada thistle (Cirsium arvense) were planted in pots containing Redi-Earth® planting medium (Scotts Company, 14111 Scottslawn Road, Marysville, Ohio 43041) comprising spaghnum peat moss, vermiculite, wetting agent and starter nutrients and treated with postemergence applications of the test chemicals formulated in the same manner. Plants ranged in height from 2 to 18 cm (1- to 4-leaf stage). Treated plants and controls were maintained in a controlled growth environment for 14 to 21 d after which time all species were compared to controls and visually evaluated. Plant response ratings, summarized in Table D, are based on a scale of 0 to 100 where 0 is no effect and 100 is complete control. A dash (-) response means no test result.

[2] = tested on: common ragweed (AMBEL; Ambrosia artemisiifolia); assay: Test I pre-/postemergence, mixtures of Cpd. No. 20 with saflufenacil or pyroxasulfone; settings: for Plant response rating (0 to 100 scale): AMBEL
Source text: (§1) This test evaluated the effect of mixtures of Cpd. No. 20 with saflufenacil or pyroxasulfone on several plant species. Seeds of plant species selected from corn (ZEAMD; Zea mays, cv. ‘Pioneer 1184’), soybean (GLXMA; Glycine max, cv. Pioneer 35T58), giant foxtail (SETFA; Setaria faberi), palmer amaranth (AMAPA; Amaranthus palmeri), common waterhemp (AMATU; Amaranthus rudis), mare's tail (ERICA; Conyza canadensis), and common ragweed (AMBEL; Ambrosia artemisiifolia) were planted in pots containing Tama Silt Loam soil and treated preemergence with a directed soil spray using test chemicals formulated in a non-phytotoxic solvent mixture which included a surfactant.
(§2) At the same time, plants selected from these crop and weed species were planted in pots containing Redi-Earth® planting medium (Scotts Company, 14111 Scottslawn Road, Marysville, Ohio 43041) comprising spaghnum peat moss, vermiculite, wetting agent and starter nutrients and treated postemergence with test chemicals formulated in the same manner. Plants ranged in height from 2 to 10 cm and were in the one- to two-leaf stage for the postemergence treatment. Treated plants and untreated controls were maintained in a greenhouse for approximately 14-21 d, after which time all treated plants were compared to untreated controls and visually evaluated for injury. Plant response ratings, summarized in Tables 11 to 14, are based on a 0 to 100 scale where 0 is no effect and 100 is complete control. A dash (-) response means no test result. Test results are presented as a mean of 4 reps.

[3] = tested on: common waterhemp (AMATU; Amaranthus rudis); assay: as above; settings: for Plant response rating (0 to 100 scale): AMATU
Source text: as §1, §2

[4] = tested on: corn (ZEAMD; Zea mays, cv. ‘Pioneer 1184’); assay: as above; settings: for Plant response rating (0 to 100 scale): ZEAMD
Source text: as §1, §2

[5] = tested on: mare's tail (ERICA; Conyza canadensis); assay: as above; settings: for Plant response rating (0 to 100 scale): Preemergence, ERICA
Source text: as §1, §2

[6] = tested on: palmer amaranth (AMAPA; Amaranthus palmeri); assay: as above; settings: for Plant response rating (0 to 100 scale): AMAPA
Source text: as §1, §2

[7] = tested on: soybean (GLXMA; Glycine max, cv. Pioneer 35T58); assay: as above; settings: for Plant response rating (0 to 100 scale): GLXMA
Source text: as §1, §2

[8] = Preemergence, Cpd. No. 20 8 g a.i./ha alone
[9] = preemergence, Cpd. No. 20 16 g a.i./ha alone
[10] = preemergence, Cpd. No. 20 31 g a.i./ha alone
[11] = preemergence, Cpd. No. 20 62 g a.i./ha alone

Cc1ccc2ccc(C)c(-c3c(O)c(Cl)nn(C)c3=O)c2c1 [Cpd. No. 20, 6-chloro-4-(2,7-dimethyl-1-naphthalenyl)-5-hydroxy-2-methyl-3(2H)-pyridazinone]
44: AMAPA plant response rating, 0 to 100 scale ([6]; preemergence, 16 g a.i./ha) | Plant response rating (0 to 100 scale) [6, 9]
23: Plant response rating (0 to 100 scale) [6, 8] | AMAPA plant response rating, 0 to 100 scale ([6]; preemergence, 8 g a.i./ha) | AMAPA plant response rating, 0 to 100 scale ([6]; preemergence, 31 g a.i./ha) | Plant response rating (0 to 100 scale) [6, 10]
83: AMATU plant response rating, 0 to 100 scale ([3]; postemergence, 62 g a.i./ha)
94: AMBEL plant response rating, 0 to 100 scale ([2]; postemergence, 62 g a.i./ha)
80: AMATU plant response rating, 0 to 100 scale ([3]; preemergence, 62 g a.i./ha) | Plant response rating (0 to 100 scale) [3, 11]
69: AMBEL plant response rating, 0 to 100 scale ([2]; preemergence, 31 g a.i./ha) | Plant response rating (0 to 100 scale) [2, 10]
40: AMAPA plant response rating, 0 to 100 scale ([6]; postemergence, 16 g a.i./ha)
16: GLXMA plant response rating, 0 to 100 scale ([7]; postemergence, 62 g a.i./ha)
98: Plant response rating, Chamomile ([1]; 31 g ai/ha) | AMBEL plant response rating, 0 to 100 scale ([2]; preemergence, 62 g a.i./ha) | Plant response rating (0 to 100 scale) [2, 11]
15: GLXMA plant response rating, 0 to 100 scale ([7]; postemergence, 31 g a.i./ha)
95: Plant response rating, Chamomile ([1]; 16 g ai/ha)
100: Plant response rating, Chamomile ([1]; 62 g ai/ha) | Plant response rating, Chamomile ([1]; 125 g ai/ha) | AMBEL plant response rating, 0 to 100 scale ([2]; postemergence, 31 g a.i./ha) | Plant response rating (0 to 100 scale) ([5]; Cpd. No. 20 16 g a.i./ha alone) | Plant response rating (0 to 100 scale) ([5]; Cpd. No. 20 31 g a.i./ha alone) | Plant response rating (0 to 100 scale) ([5]; Cpd. No. 20 62 g a.i./ha alone) | ERICA plant response rating, 0 to 100 scale ([5]; preemergence, 16 g a.i./ha) | ERICA plant response rating, 0 to 100 scale ([5]; preemergence, 31 g a.i./ha) | ERICA plant response rating, 0 to 100 scale ([5]; preemergence, 62 g a.i./ha)
90: AMBEL plant response rating, 0 to 100 scale ([2]; postemergence, 16 g a.i./ha) | ERICA plant response rating, 0 to 100 scale ([5]; postemergence, 31 g a.i./ha) | ERICA plant response rating, 0 to 100 scale ([5]; postemergence, 62 g a.i./ha)
10: AMBEL plant response rating, 0 to 100 scale ([2]; preemergence, 16 g a.i./ha) | Plant response rating (0 to 100 scale) [2, 9]
85: ERICA plant response rating, 0 to 100 scale ([5]; postemergence, 8 g a.i./ha)
38: AMAPA plant response rating, 0 to 100 scale ([6]; postemergence, 8 g a.i./ha)
59: AMATU plant response rating, 0 to 100 scale ([3]; postemergence, 16 g a.i./ha)
86: AMBEL plant response rating, 0 to 100 scale ([2]; postemergence, 8 g a.i./ha) | ERICA plant response rating, 0 to 100 scale ([5]; postemergence, 16 g a.i./ha)
50: AMATU plant response rating, 0 to 100 scale ([3]; postemergence, 8 g a.i./ha) | AMAPA plant response rating, 0 to 100 scale ([6]; postemergence, 31 g a.i./ha)
61: AMAPA plant response rating, 0 to 100 scale ([6]; preemergence, 62 g a.i./ha) | Plant response rating (0 to 100 scale) [6, 11]
65: AMAPA plant response rating, 0 to 100 scale ([6]; postemergence, 62 g a.i./ha)
93: Plant response rating (0 to 100 scale) ([5]; Cpd. No. 20 8 g a.i./ha alone) | ERICA plant response rating, 0 to 100 scale ([5]; preemergence, 8 g a.i./ha)
81: AMATU plant response rating, 0 to 100 scale ([3]; postemergence, 31 g a.i./ha)
0: Plant response rating (0 to 100 scale) [2, 8] | AMBEL plant response rating, 0 to 100 scale ([2]; preemergence, 8 g a.i./ha) | Plant response rating (0 to 100 scale) [3, 8] | AMATU plant response rating, 0 to 100 scale ([3]; preemergence, 8 g a.i./ha) | AMATU plant response rating, 0 to 100 scale ([3]; preemergence, 16 g a.i./ha) | AMATU plant response rating, 0 to 100 scale ([3]; preemergence, 31 g a.i./ha) | Plant response rating (0 to 100 scale) [3, 9] | Plant response rating (0 to 100 scale) [3, 10] | Plant response rating (0 to 100 scale) [4, 8] | ZEAMD plant response rating, 0 to 100 scale ([4]; postemergence, 8 g a.i./ha) | ZEAMD plant response rating, 0 to 100 scale ([4]; postemergence, 16 g a.i./ha) | ZEAMD plant response rating, 0 to 100 scale ([4]; postemergence, 31 g a.i./ha) | ZEAMD plant response rating, 0 to 100 scale ([4]; postemergence, 62 g a.i./ha) | ZEAMD plant response rating, 0 to 100 scale ([4]; preemergence, 8 g a.i./ha) | ZEAMD plant response rating, 0 to 100 scale ([4]; preemergence, 16 g a.i./ha) | ZEAMD plant response rating, 0 to 100 scale ([4]; preemergence, 31 g a.i./ha) | ZEAMD plant response rating, 0 to 100 scale ([4]; preemergence, 62 g a.i./ha) | Plant response rating (0 to 100 scale) [4, 9] | Plant response rating (0 to 100 scale) [4, 10] | Plant response rating (0 to 100 scale) [4, 11] | Plant response rating (0 to 100 scale) [7, 8] | GLXMA plant response rating, 0 to 100 scale ([7]; postemergence, 8 g a.i./ha) | GLXMA plant response rating, 0 to 100 scale ([7]; postemergence, 16 g a.i./ha) | GLXMA plant response rating, 0 to 100 scale ([7]; preemergence, 8 g a.i./ha) | GLXMA plant response rating, 0 to 100 scale ([7]; preemergence, 16 g a.i./ha) | GLXMA plant response rating, 0 to 100 scale ([7]; preemergence, 31 g a.i./ha) | GLXMA plant response rating, 0 to 100 scale ([7]; preemergence, 62 g a.i./ha) | Plant response rating (0 to 100 scale) [7, 9] | Plant response rating (0 to 100 scale) [7, 10] | Plant response rating (0 to 100 scale) [7, 11]

Cc1cc(Cl)c2ccccc2c1-c1c(O)c(Cl)nn(C)c1=O [Cpd. No. 65]
99: Plant response rating, Chamomile ([1]; 16 g ai/ha)
100: Plant response rating, Chamomile ([1]; 31 g ai/ha) | Plant response rating, Chamomile ([1]; 62 g ai/ha) | Plant response rating, Chamomile ([1]; 125 g ai/ha)
